The test deals with T1, Aromatase (Rattus norvegicus, UniProt P22443).
T1 construct: Infantile weibliche Ratten reagieren auf PMSG (Pregnant Mare's Serum Gonadotropin)-Behandlung mit einheitlich erhöhter Steroidsynthese; from tissue; host or cells: living infantile female rats pretreated with PMSG
T1 sequence (P22443 1-508): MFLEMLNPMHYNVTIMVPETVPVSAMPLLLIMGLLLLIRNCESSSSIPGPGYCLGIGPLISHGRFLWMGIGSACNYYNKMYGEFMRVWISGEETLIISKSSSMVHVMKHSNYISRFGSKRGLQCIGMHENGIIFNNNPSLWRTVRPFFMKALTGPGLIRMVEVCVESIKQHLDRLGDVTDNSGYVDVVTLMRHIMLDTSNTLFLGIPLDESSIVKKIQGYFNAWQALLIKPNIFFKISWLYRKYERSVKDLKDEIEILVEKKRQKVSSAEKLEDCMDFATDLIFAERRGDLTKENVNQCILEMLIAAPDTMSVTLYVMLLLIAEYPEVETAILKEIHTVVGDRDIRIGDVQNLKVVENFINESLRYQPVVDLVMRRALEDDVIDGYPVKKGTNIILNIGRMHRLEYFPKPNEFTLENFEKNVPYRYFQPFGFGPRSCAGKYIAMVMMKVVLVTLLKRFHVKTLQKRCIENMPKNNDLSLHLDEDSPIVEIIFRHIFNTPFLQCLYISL
Description: PMSG test: effect on serum oestradiol concentration in PMSG-pretreated infantile female rats. Type of test: in vivo, Ratte. The note with it: for Östradiol-Konzentration: peripheral serum, PMSG-pretreated rat, 24 h after last PMSG, mean ± SD; for Serum-östradiolkonzentration: in comparison with A and B. The method, then: Infantile weibliche Ratten reagieren auf PMSG (Pregnant Mare's Serum Gonadotropin)-Behandlung mit einheitlich erhöhter Steroidsynthese. Die Aromataseaktivität kann durch die Beeinflussung der PMSG-stimulierten Östrogenbildung gemessen werden.
Im sogenannten PMSG-Test werden 21 tage alte weibliche Ratten alle 2 Tage insgesamt 7 mal mit je 100 I.U. PMSG subkutan vorbehandelt. 1 Stunde vor und 8 Stunden nach der letzten PMSG-Applikation(d₁₂) erhalten die Tiere die Testsubstanz in 0,1 ml Benzylbenzoat/Rizinusöl (1+9) durch subkutane Injektion. Die Kontrolltiere erhalten nur das Vehikel. 24 Stunden nach der letzten PMSG-Applikation werden die Tiere getötet. Im serum wird Östradiol radioimmunologisch geprüft. Für jede Gruppe von Tieren wird der Mittelwert der Östradiolkonzentration in nMol/l mit der Standardabweichung errechnet. Die Signifikanzen der Unterschiede zur Kontrollgruppe werden durch die Varianzanalyse geprüft. Zur Ermittlung der relativen Wirkungsstärke der zu testenden Substanz im Vergleich zu der Standardsubstanz wird die Regressions- und Kovarianzanalyse durchgeführt. Ferner wird die prozentuale Hemmung gegen die PMSG-Kontrolle berechnet.

On to `C[C@]12CCC(=O)C(O)=C1CC[C@@H]1[C@@H]2CC[C@]2(C)C(=O)CC[C@@H]12` [A, 4-Hydroxy-4-androsten-3,17-dion, reference compound], for which the Östradiol-Konzentration is given as 3,98±1,12 nMol/l (Dosis 0,1 mg/Tier 2 x s.c.), 3,84±0,84 nMol/l (Dosis 0,3 mg/Tier 2 x s.c.) and 1,94±0,62 nMol/l (Dosis 1,0 mg/Tier 2 x s.c.).

Turning to `CC(=O)OCC[C@H]1CC(=O)[C@@]2(C)CC[C@H]3[C@@H](CCC4=CC(=O)C=C(C)[C@@]43C)[C@H]12` [B, 15α-(Acetoxyethyl)-1-methyl-androsta-1,4-dien-3,17-dion, reference compound], the Östradiol-Konzentration is given as 2,11±0,39 nMol/l (Dosis 0,1 mg/Tier 2 x s.c.), 0,62±0,13 nMol/l (Dosis 0,3 mg/Tier 2 x s.c.) and 0,54±0,07 nMol/l (Dosis 1,0 mg/Tier 2 x s.c.).

For `CC(=O)O[C@H]([C@H]1CC(=O)[C@@]2(C)CC[C@H]3[C@@H](CCC4=CC(=O)C=C(C)[C@@]43C)[C@H]12)[C@H](C)OC(C)=O` [C, 15α-(1R,2S-Diacetoxypropyl)-1-methyl-androsta-1,4-dien-3,17-dion], the Serum-östradiolkonzentration result is “stärker gesenkt”. For the setting “Dosis 0,1 mg/Tier 2 x s.c.”, the Östradiol-Konzentration is given as 1,30±0,37 nMol/l. Further, the Östradiol-Konzentration (Dosis 0,3 mg/Tier 2 x s.c.) is listed as 0,68±0,32 nMol/l. For the same compound, the Östradiol-Konzentration (Dosis 1,0 mg/Tier 2 x s.c.) is listed as 0,24±0,10 nMol/l.

With `CC[C@H](OC(C)=O)[C@H](OC(C)=O)[C@H]1CC(=O)[C@@]2(C)CC[C@H]3[C@@H](CCC4=CC(=O)C=C(C)[C@@]43C)[C@H]12` [D, 15α-(1R,2S-Diacetoxybutyl)-1-methyl-androsta-1,4-dien-3,17-dion], the Serum-östradiolkonzentration entry is “stärker gesenkt”. The Östradiol-Konzentration (Dosis 0,1 mg/Tier 2 x s.c.) is 0,54±0,11 nMol/l. Moreover, under “Dosis 0,3 mg/Tier 2 x s.c.”, the Östradiol-Konzentration was 0,88±0,15 nMol/l. Further, under “Dosis 1,0 mg/Tier 2 x s.c.”, the Östradiol-Konzentration was 0,41±0,09 nMol/l.

These data come from patent EP0277910A1, “1-Methyl-15-alpha-(1,2-dialkanoyloxyalkyl)androsta-1,4-diene-3-17-diones, process for their preparation and pharmaceutical compositions containing them” (SCHERING AKTIENGESELLSCHAFT, priority 1987, dated 1988).
